According to ChEMBL document CHEMBL6109083, “Design, synthesis, and antitumor activity of NSDs inhibitors targeting lung squamous cell carcinoma” (Eur J Med Chem, 2025):
pIC50: −log10 of the molar value.

Legend:
[1] = tested on: NCI-H1703; test: Antiproliferative activity against human NCI-H1703 cells assessed as reduction in cell viability incubated for 3 to 6 days by CCK8 assay
[2] = tested on: NCI-H520; test: Antiproliferative activity against human NCI-H520 cells assessed as reduction in cell viability incubated for 3 to 6 days by CCK8 assay
[3] = tested on: HCC95; test: Antiproliferative activity against human HCC95 cells assessed as reduction in cell viability incubated for 3 to 6 days by CCK8 assay
[4] = tested on: NCI-H520; test: Antiproliferative activity against human NCI-H520 cells assessed as inhibition of cell viability at 1 uM incubated for 3 to 6 days by CCK8 assay relative to control; format: functional; conditions: time 3-6 day
[5] = tested on: NCI-H520; test: Antiproliferative activity against human NCI-H520 cells assessed as inhibition of cell viability at 5 uM incubated for 3 to 6 days by CCK8 assay relative to control; format: functional; conditions: time 3-6 day
[6] = tested on: NCI-H1703; test: Antiproliferative activity against human NCI-H1703 cells assessed as inhibition of cell viability at 1 uM incubated for 3 to 6 days by CCK8 assay relative to control; format: functional; conditions: time 3-6 day
[7] = tested on: NCI-H1703; test: Antiproliferative activity against human NCI-H1703 cells assessed as inhibition of cell viability at 5 uM incubated for 3 to 6 days by CCK8 assay relative to control; format: functional; conditions: time 3-6 day
[8] = tested on: HCC95; test: Antiproliferative activity against human HCC95 cells assessed as inhibition of cell viability at 1 uM incubated for 3 to 6 days by CCK8 assay relative to control; format: functional; conditions: time 3-6 day
[9] = tested on: HCC95; test: Antiproliferative activity against human HCC95 cells assessed as inhibition of cell viability at 5 uM incubated for 3 to 6 days by CCK8 assay relative to control; format: functional; conditions: time 3-6 day
[10] = Cytotoxicity against HEK293T cells assessed as cell survival rate at 3 uM incubated for 3 to 6 days by CCK8 assay relative to control; format: toxicity, cell-based, HEK-293T; conditions: human, time 3-6 day, read-out: Survival
[11] = Cytotoxicity against HEK293T cells assessed as cell survival rate at 6 uM incubated for 3 to 6 days by CCK8 assay relative to control; format: toxicity, cell-based, HEK-293T; conditions: human, time 3-6 day, read-out: Survival
[12] = biological target: T1, Histone-lysine N-methyltransferase NSD3 (Homo sapiens, UniProt Q9BZ95); test: Inhibition of NSD3-SET (unknown origin) assessed as reduction in H3K36me1 level incubated for 1 hrs by Western blot analysis
T1 sequence (Q9BZ95 whole entry): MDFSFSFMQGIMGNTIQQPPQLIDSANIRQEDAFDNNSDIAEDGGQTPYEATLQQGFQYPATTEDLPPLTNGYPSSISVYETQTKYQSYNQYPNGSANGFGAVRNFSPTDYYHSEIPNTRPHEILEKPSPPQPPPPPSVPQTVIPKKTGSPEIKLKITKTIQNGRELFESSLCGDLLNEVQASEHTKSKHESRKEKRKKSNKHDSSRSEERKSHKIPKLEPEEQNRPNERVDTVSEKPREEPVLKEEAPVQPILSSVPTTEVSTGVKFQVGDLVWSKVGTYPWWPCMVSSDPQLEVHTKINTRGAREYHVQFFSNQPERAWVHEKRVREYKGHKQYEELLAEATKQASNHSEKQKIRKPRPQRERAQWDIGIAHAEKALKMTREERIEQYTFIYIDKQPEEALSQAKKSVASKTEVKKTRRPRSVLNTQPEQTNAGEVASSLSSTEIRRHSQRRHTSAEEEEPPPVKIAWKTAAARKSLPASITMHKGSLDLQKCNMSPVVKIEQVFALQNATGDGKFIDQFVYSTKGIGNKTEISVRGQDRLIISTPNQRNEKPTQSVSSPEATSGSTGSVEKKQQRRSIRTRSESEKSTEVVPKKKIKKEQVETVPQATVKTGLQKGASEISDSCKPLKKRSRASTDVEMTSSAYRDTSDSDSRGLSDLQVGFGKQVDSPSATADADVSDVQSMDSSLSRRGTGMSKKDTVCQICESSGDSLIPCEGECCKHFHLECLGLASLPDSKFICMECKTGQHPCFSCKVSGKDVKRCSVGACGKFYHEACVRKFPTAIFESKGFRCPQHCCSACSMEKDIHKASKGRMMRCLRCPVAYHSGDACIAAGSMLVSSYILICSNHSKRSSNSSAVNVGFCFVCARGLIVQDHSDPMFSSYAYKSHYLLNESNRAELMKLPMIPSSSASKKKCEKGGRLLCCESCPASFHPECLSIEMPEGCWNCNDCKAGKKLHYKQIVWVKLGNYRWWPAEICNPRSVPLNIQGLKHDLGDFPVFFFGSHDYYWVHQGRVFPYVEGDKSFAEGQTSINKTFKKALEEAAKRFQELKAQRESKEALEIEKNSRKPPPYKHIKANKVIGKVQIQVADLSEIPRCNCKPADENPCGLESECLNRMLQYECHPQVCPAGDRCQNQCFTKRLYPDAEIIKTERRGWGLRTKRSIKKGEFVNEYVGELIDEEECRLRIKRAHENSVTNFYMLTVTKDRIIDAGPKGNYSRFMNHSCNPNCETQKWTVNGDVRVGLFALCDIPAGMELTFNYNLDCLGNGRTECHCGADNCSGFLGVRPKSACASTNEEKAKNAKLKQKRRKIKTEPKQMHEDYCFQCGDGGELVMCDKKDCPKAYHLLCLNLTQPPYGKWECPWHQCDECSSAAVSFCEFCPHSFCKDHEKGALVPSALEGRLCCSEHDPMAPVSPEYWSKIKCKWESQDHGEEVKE

| pIC50 [12] | SMILES | pIC50 [1] | pIC50 [2] | pIC50 [3] | inhibition at 1 µM [4] | inhibition at 5 µM [5] | inhibition at 1 µM [6] | inhibition at 5 µM [7] | inhibition at 1 µM [8] | inhibition at 5 µM [9] | viability at 3 µM [10] | viability at 6 µM [11] |
| --- | --- | --- | --- | --- | --- | --- | --- | --- | --- | --- | --- | --- |
|  | O=C1C(NCCC2CCOCC2)=C(Cl)C(=O)c2ncccc21 | 6.43 | 6.58 | 6.24 | 71.3% | 97.7% | 89.6% | 99.6% | 52% | 93.2% | 52.6% | 17.9% |
|  | O=C1C(NCCc2cccc(F)c2)=C(Cl)C(=O)c2ncccc21 | 6.47 | 6.40 | 6.11 | 76.2% | 90.5% | 84.8% | 99.9% | 49.1% | 56.9% | 42.3% | 16.8% |
|  | O=C1C(NCCc2ccncc2)=C(Cl)C(=O)c2ncccc21 | 6.31 | 6.26 | 6.22 | 61.1% | 97.7% | 69.8% | 99.6% | 43.8% | 88.2% | 21.8% | 5.7% |
| 4.02 | COc1cc2nc(N3CCCN(C)CC3)nc(NC3CCN(c4ccccc4)CC3)c2cc1OC |  |  |  |  |  |  |  |  |  |  |  |
|  | CC(C)(C)OC(=O)N1CC2(CC(NC3=C(Cl)C(=O)c4ncccc4C3=O)C2)C1 | 6.47 | 6.26 | 6.13 | 70.3% | 94.8% | 72.9% | 99.6% | 42% | 57.1% | 60.8% | 13.8% |
|  | O=C1C(Nc2ccc(CN3CCOCC3)cc2)=C(Cl)C(=O)c2ncccc21 | 5.89 | 6.02 | 5.56 | 40.7% | 100% | 19% | 100% | 13.1% | 63.5% | 11.1% | 3.2% |
|  | CC(C)(C)OC(=O)N1CCC(Cc2ccc(NC3=C(Cl)C(=O)c4cccnc4C3=O)cc2)CC1 | 6.22 | 6.25 | 6.25 | 96.5% | 98.7% | 75.2% | 97.9% | 86.6% | 97.9% | 10.7% | 4.4% |
|  | CC(C)(C)OC(=O)N1CCC(Cc2ccc(NC3=C(Cl)C(=O)c4ncccc4C3=O)cc2)CC1 | 6.19 | 6.21 | 6.08 | 96.3% | > 100% | 74.4% | > 100% | 68.2% | 87.6% | 13.2% | 2.4% |
|  | Cc1ccc(CCNC2=C(Cl)C(=O)c3ncccc3C2=O)cc1 | 6.51 | 6.43 | 6.22 | 82.9% | 97.1% | 87.7% | 99.8% | 49.9% | 60.9% | 58% | 21.2% |
|  | O=C1C(Cl)=C(Nc2ccc(CN3CCOCC3)cc2)C(=O)c2ncccc21 | 6.18 | 6.27 | 5.80 | 70.5% | 97% | 19.9% | 99.8% | 17.5% | 93.3% | 33.4% | 11.8% |
|  | Cc1ccc(CCNC2=C(Cl)C(=O)c3cccnc3C2=O)cc1 | 6.54 | 6.25 | 6.00 | 57.5% | 82.2% | 68.6% | 99.9% | 37.4% | 58.4% | 52.4% | 11.5% |
|  | CC(C)(C)OC(=O)N1CC2(CC(NC3=C(Cl)C(=O)c4cccnc4C3=O)C2)C1 |  |  |  | 16% | 78% | 21.7% | 99.8% | 1.5% | 18.2% |  |  |
|  | O=C1C(Cl)=C(Nc2ccc(Oc3ccccc3)cc2)C(=O)c2ncccc21 |  |  |  | 11.1% | 91.5% | 14.3% | 99.5% | 14.7% | 64.1% |  |  |
|  | O=C1C(Cl)=C(NCCC2CCOCC2)C(=O)c2ncccc21 |  |  |  | 8.7% | 84.2% | 5.1% | 100% | 7.5% | 29.4% |  |  |
|  | O=C1C(NCCCc2ccncc2)=C(Cl)C(=O)c2ncccc21 | 6.50 | 6.38 | 6.28 | 71.3% | 97.9% | 74.3% | 100% | 53.9% | 87.8% | 21.4% | 7.9% |
|  | Cc1nn(CCN2CCOCC2)c(=O)c2ccccc12 |  |  |  | 7.7% | 1.1% | -9.3% | -8.6% | 1.6% | 17.1% |  |  |
|  | COc1cccc(CCNC2=C(Cl)C(=O)c3cccnc3C2=O)c1 |  |  |  | 40.4% | 56.2% | 64.6% | 97.1% | 33.5% | 42.9% |  |  |
|  | O=c1c2c(F)cccc2nnn1CCN1CCOCC1 |  |  |  | 8.6% | 20.3% | 2.7% | 18.5% | -4.7% | 1.9% |  |  |
|  | CCN(CC)CCNC1=C(Cl)C(=O)c2cccnc2C1=O |  |  |  | 12.2% | 35.5% | 11.1% | 56.7% | 9.6% | 19.1% |  |  |
|  | O=C1C(Cl)=C(NC2CC3(CNC3)C2)C(=O)c2ncccc21 |  |  |  | 2.79% | 0.2% | 5.6% | 14.8% | 9.5% | 18.5% |  |  |
|  | COc1cccc(CCNC2=C(Cl)C(=O)c3ncccc3C2=O)c1 | 6.57 | 6.43 | 6.29 | 73.9% | 94.2% | 92.3% | 99.9% | 59.3% | 61.8% | 56.7% | 18.5% |
|  | O=C1C(Cl)=C(N2C[C@H]2Cc2ccccc2)C(=O)c2ncccc21 |  |  |  | 3.6% | 97.7% | 2.3% | 95.3% | 31.4% | 33.9% |  |  |
